Source: ChEMBL document CHEMBL4725315, “Structure-guided optimization of a novel class of ASK1 inhibitors with increased sp character and an exquisite selectivity profile” (Bioorg Med Chem Lett, 2020)
Values after ≈ are worked out from the molar mass of the structure shown. Values belong to the compound of their own block, whether it stands above or below them.

Key:
[1] = biological target: Cyclin-dependent kinase 2 (Homo sapiens, UniProt P24941); assay: Inhibition of CDK2 (unknown origin)
[2] = biological target: 5'-AMP-activated protein kinase catalytic subunit alpha-1 (Homo sapiens, UniProt Q13131); assay: Inhibition of PRKKA1 (unknown origin)
Chain of 5'-AMP-activated protein kinase catalytic subunit alpha-1 (Q13131 whole entry): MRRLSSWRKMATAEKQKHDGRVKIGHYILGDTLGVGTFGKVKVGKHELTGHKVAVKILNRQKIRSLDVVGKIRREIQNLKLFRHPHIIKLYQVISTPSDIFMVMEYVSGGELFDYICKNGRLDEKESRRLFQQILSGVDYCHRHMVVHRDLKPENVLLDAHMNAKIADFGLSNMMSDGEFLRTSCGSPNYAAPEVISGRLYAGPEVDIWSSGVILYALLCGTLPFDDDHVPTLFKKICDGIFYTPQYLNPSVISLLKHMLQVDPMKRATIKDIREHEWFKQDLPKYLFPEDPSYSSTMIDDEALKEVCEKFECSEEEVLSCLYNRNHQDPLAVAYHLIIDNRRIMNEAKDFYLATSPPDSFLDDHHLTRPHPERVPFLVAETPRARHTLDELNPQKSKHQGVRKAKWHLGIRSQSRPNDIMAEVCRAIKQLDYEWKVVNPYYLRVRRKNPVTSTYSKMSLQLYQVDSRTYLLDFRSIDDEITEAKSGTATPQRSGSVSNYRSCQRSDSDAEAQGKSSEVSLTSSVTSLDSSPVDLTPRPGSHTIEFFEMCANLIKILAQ

[3] = biological target: T1, Receptor tyrosine-protein kinase erbB-4 (Homo sapiens, UniProt Q15303); assay: Inhibition of ERBB4 (unknown origin)
T1 sequence (Q15303 whole entry): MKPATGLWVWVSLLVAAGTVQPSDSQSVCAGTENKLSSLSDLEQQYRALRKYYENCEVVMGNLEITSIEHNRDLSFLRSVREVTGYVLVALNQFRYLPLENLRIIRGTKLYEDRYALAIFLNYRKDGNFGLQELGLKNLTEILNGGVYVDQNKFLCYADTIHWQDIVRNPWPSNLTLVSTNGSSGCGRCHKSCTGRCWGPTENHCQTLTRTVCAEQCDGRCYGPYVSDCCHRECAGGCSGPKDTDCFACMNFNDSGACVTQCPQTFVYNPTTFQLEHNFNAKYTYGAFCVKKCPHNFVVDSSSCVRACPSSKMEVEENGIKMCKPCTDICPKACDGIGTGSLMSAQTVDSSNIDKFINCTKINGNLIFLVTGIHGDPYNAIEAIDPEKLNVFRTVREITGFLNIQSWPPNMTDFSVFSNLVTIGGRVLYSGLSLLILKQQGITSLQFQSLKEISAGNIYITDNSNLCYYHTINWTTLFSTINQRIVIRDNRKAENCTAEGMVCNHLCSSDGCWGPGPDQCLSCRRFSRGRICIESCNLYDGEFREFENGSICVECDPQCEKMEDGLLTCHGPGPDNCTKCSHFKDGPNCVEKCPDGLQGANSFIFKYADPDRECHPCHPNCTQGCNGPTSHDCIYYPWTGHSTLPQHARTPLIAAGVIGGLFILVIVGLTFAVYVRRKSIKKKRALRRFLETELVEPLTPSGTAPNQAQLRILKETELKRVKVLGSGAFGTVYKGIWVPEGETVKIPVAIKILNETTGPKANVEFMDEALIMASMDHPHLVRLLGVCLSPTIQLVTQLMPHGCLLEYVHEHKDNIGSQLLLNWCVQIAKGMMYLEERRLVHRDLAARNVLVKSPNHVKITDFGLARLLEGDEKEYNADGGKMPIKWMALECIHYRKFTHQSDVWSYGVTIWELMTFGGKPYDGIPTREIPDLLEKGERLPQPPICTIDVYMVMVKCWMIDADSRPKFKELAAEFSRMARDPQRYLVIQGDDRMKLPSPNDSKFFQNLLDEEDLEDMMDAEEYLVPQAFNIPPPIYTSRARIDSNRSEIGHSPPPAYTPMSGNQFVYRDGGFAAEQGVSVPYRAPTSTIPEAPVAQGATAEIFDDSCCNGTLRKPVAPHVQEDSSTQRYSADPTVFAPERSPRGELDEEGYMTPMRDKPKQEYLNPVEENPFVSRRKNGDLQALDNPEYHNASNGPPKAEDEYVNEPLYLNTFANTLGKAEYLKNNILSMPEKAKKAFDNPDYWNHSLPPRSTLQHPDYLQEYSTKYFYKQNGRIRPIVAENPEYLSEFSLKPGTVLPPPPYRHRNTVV

[4] = biological target: Rho-associated protein kinase 1 (Homo sapiens, UniProt Q13464); assay: Inhibition of ROCK1 (unknown origin)
[5] = biological target: T2, Mitogen-activated protein kinase kinase kinase 5 (Homo sapiens, UniProt Q99683); assay: Inhibition of ASK1 (unknown origin)
T2 sequence (Q99683 whole entry): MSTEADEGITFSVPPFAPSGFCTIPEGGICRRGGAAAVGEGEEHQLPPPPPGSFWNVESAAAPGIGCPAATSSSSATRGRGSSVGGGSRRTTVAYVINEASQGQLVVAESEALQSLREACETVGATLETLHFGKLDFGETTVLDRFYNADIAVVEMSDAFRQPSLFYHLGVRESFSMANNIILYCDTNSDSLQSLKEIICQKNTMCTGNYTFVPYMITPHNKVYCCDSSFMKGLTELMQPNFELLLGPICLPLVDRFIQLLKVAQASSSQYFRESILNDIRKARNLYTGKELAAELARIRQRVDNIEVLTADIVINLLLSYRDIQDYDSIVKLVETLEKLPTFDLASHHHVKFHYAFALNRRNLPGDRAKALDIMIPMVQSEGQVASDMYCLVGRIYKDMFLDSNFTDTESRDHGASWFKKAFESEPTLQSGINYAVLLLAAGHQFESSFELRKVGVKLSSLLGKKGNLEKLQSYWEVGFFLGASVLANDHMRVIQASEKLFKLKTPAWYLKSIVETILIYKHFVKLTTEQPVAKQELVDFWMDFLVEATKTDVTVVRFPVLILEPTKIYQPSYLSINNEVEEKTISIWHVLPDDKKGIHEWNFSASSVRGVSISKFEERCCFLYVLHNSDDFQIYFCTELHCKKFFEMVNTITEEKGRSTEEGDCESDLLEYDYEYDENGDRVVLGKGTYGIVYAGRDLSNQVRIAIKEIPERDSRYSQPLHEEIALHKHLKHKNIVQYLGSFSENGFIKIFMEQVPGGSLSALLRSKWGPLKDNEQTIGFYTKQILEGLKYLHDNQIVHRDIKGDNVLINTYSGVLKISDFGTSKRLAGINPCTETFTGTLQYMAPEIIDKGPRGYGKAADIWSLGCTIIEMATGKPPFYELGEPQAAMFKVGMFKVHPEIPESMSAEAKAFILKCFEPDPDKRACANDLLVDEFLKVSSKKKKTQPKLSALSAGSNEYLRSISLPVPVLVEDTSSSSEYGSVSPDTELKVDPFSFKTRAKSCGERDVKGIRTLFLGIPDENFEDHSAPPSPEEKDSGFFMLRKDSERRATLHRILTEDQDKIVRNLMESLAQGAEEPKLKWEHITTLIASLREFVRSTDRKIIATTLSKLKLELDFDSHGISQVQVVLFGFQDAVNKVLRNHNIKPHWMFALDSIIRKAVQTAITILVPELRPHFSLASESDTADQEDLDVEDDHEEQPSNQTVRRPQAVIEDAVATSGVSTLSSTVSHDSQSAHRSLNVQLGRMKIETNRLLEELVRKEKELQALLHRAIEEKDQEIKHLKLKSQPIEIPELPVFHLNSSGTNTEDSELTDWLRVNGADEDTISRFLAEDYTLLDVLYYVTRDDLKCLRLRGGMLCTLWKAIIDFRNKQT

[6] = biological target: Tyrosine-protein kinase Mer (Homo sapiens, UniProt Q12866); assay: Inhibition of MER (unknown origin)
Chain of Tyrosine-protein kinase Mer (Q12866 whole entry): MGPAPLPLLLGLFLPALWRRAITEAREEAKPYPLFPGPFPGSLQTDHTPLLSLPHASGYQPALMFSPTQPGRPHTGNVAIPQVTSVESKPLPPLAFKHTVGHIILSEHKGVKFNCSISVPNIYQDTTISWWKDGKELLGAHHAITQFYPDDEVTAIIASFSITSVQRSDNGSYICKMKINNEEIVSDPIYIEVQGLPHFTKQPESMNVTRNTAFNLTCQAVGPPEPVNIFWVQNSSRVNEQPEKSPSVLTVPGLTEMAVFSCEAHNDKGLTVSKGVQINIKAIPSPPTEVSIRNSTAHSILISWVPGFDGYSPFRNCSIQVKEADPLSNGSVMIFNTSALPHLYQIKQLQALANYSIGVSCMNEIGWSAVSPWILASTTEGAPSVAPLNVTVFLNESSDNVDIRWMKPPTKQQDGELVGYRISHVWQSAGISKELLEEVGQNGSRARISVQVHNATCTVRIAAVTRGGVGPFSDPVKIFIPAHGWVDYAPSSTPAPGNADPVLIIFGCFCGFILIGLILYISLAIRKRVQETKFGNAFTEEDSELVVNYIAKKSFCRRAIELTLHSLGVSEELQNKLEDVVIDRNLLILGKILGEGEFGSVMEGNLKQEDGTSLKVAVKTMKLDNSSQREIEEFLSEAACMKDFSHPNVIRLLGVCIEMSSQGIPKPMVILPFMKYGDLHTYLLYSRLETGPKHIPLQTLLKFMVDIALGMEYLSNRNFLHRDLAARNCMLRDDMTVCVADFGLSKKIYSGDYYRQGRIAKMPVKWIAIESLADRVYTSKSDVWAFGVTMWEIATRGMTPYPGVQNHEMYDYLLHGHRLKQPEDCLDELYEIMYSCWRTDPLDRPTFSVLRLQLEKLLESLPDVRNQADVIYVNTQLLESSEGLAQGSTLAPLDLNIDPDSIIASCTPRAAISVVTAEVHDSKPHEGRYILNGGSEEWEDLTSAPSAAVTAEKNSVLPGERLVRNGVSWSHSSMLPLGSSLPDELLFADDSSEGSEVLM

[7] = biological target: Tyrosine-protein kinase ITK/TSK (Homo sapiens, UniProt Q08881); assay: Inhibition of ITK (unknown origin)
Ephrin type-A receptor 3 = Ephrin type-A receptor 3 (Homo sapiens, UniProt P29320); assay: Inhibition of EPHA3 (unknown origin)
Chain of Ephrin type-A receptor 3 (P29320 whole entry): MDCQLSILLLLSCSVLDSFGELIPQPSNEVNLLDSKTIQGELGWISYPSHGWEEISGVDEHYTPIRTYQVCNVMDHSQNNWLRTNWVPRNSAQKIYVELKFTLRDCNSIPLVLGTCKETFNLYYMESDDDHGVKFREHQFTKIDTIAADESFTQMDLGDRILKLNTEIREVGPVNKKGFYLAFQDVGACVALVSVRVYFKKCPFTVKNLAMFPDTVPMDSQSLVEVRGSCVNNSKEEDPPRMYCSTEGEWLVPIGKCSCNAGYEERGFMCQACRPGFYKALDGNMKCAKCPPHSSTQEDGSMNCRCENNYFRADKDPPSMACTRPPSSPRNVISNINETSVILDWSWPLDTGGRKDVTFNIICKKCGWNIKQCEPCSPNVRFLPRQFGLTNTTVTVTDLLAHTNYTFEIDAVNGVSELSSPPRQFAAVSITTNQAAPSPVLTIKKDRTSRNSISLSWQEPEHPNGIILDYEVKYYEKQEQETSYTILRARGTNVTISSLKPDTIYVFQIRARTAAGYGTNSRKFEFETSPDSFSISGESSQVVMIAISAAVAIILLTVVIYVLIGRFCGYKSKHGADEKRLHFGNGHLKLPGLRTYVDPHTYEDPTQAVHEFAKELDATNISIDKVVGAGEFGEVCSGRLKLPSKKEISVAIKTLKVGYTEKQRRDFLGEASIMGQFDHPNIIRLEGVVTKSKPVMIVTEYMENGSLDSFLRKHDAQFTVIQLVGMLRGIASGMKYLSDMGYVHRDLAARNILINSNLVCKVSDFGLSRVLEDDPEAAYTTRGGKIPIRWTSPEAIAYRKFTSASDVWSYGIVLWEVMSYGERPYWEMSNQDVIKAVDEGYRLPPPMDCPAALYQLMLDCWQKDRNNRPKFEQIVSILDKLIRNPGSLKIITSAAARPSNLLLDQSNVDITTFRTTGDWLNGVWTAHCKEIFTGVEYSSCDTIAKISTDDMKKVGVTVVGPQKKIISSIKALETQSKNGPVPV

[8] = biological target: Proto-oncogene tyrosine-protein kinase receptor Ret (Homo sapiens, UniProt P07949); assay: Inhibition of RET (unknown origin)
MAP kinase p38 = MAP kinase p38 (Homo sapiens, UniProt O15264+Q15759+Q16539+P53778); assay: Inhibition of p38 (unknown origin); format: protein assay
[9] = biological target: T1, Receptor tyrosine-protein kinase erbB-4; assay: Inhibition of HER4 (unknown origin)
[10] = Inhibition of GSK3 (unknown origin); parameters: species or system Homo sapiens
[11] = biological target: Epidermal growth factor receptor (Homo sapiens, UniProt P00533); assay: Inhibition of EGFR (unknown origin)
Chain of Epidermal growth factor receptor (P00533 whole entry): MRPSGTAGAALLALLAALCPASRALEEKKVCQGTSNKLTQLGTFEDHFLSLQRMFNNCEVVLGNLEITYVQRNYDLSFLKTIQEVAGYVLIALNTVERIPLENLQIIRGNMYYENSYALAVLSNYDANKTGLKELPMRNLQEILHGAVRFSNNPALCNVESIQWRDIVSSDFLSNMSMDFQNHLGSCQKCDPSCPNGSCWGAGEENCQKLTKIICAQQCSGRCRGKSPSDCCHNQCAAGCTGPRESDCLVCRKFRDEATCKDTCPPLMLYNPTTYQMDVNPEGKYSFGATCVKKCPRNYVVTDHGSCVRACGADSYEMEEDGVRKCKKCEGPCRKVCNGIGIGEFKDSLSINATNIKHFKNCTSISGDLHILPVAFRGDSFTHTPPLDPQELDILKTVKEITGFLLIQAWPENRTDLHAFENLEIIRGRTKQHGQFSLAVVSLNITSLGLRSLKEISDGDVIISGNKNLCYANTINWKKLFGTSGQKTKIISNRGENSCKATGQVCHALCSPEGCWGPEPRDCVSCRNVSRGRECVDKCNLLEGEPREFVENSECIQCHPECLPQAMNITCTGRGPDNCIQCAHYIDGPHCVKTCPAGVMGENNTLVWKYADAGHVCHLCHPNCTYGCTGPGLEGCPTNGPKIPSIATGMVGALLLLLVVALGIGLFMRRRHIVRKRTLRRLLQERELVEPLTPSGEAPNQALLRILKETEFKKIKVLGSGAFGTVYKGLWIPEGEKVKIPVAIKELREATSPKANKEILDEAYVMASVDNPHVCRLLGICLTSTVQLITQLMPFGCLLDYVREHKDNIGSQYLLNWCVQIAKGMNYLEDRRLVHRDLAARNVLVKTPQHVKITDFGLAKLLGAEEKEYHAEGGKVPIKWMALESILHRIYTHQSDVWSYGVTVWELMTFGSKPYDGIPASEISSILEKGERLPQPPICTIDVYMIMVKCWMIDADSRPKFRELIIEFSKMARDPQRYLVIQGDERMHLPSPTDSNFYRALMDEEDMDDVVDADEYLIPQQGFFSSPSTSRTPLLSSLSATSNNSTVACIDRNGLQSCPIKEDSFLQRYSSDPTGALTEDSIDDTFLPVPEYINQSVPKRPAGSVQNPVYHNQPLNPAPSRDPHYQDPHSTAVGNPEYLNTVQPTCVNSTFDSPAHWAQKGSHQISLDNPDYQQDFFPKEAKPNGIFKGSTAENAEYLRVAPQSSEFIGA

Homo sapiens [12] = organism: Homo sapiens; assay: Selectivity ratio of IC50 for inhibition of recombinant human GST-tagged LRRK2 expressed in baculovirus expression system to IC50 for inhibition of ASK1 (unknown origin)
MDR1 (human) = assay: Permeability across apical to basolateral side in pig LLC-PK1 cells expressing human MDR1; format: ADME, cell-based, Sus scrofa; conditions: read-out: permeability
Homo sapiens [13] = organism: Homo sapiens; assay: Selectivity ratio of IC50 for inhibition of recombinant human full-length GST-tagged PRKD2 expressed in baculovirus expression system to IC50 for inhibition of ASK1 (unknown origin)
[14] = Aqueous solubility of the compound in JP1 fluid at pH 1.2; format: physicochemical
[15] = biological target: Leucine-rich repeat serine/threonine-protein kinase 2 (Homo sapiens, UniProt Q5S007); assay: Inhibition of recombinant human GST-tagged LRRK2 expressed in baculovirus expression system
[16] = biological target: T2, Mitogen-activated protein kinase kinase kinase 5; assay: Inhibition of ASK1 (unknown origin) by cell based assay
[17] = biological target: Ribosomal protein S6 kinase alpha-2 (Homo sapiens, UniProt Q15349); assay: Inhibition of recombinant human full-length GST-tagged RSK3 expressed in insect cells
Homo sapiens [18] = organism: Homo sapiens; assay: Selectivity ratio of IC50 for inhibition of recombinant human full-length His-tagged RSK2 expressed in baculovirus expression system to IC50 for inhibition of ASK1 (unknown origin)
Homo sapiens [19] = organism: Homo sapiens; assay: Selectivity ratio of IC50 for inhibition of CK1gamma1 (unknown origin) to IC50 for inhibition of ASK1 (unknown origin)
[20] = biological target: Casein kinase I isoform gamma-3 (Homo sapiens, UniProt Q9Y6M4); assay: Inhibition of CK1gamma3 (unknown origin)
Homo sapiens [21] = organism: Homo sapiens; assay: Selectivity ratio of IC50 for inhibition of recombinant human full-length GST-tagged RSK4 expressed in baculovirus expression system to IC50 for inhibition of ASK1 (unknown origin)
[22] = biological target: Serine/threonine-protein kinase D2 (Homo sapiens, UniProt Q9BZL6); assay: Inhibition of recombinant human full-length GST-tagged PRKD2 expressed in baculovirus expression system
Homo sapiens [23] = organism: Homo sapiens; assay: Selectivity ratio of IC50 for inhibition of recombinant human full-length GST-tagged PKCmu expressed in baculovirus expression system to IC50 for inhibition of ASK1 (unknown origin)
Homo sapiens [24] = organism: Homo sapiens; assay: Selectivity ratio of IC50 for inhibition of CK1gamma3 (unknown origin) to IC50 for inhibition of ASK1 (unknown origin)
[25] = biological target: Ribosomal protein S6 kinase alpha-3 (Homo sapiens, UniProt P51812); assay: Inhibition of recombinant human full-length His-tagged RSK2 expressed in baculovirus expression system
[26] = Drug absorption in male Sprague-Dawley rat at 1 mg/kg, […] by LC-MS/MS analysis; format: ADME, organism-based; conditions: in vivo, read-out: Drug absorption
[27] = biological target: T2, Mitogen-activated protein kinase kinase kinase 5; assay: Binding affinity to ASK1 (unknown origin)
[28] = Oral bioavailability in male Sprague-Dawley rat at 5 mg/kg; format: ADME, organism-based; conditions: in vivo
[29] = Metabolic stability in human hepatocytes assessed as hepatic extraction ratio; format: ADME, cell-based, Hepatocyte; conditions: read-out: ERH
Homo sapiens [30] = organism: Homo sapiens; assay: Selectivity ratio of IC50 for inhibition of recombinant human full-length GST-tagged RSK3 expressed in insect cells to IC50 for inhibition of ASK1 (unknown origin)
[31] = Aqueous solubility of the compound in JP2 fluid at […]; format: physicochemical
[32] = biological target: Casein kinase I isoform gamma-1 (Homo sapiens, UniProt Q9HCP0); assay: Inhibition of CK1gamma1 (unknown origin)
[33] = biological target: Serine/threonine-protein kinase D1 (Homo sapiens, UniProt Q15139); assay: Inhibition of recombinant human full-length GST-tagged PKCmu expressed in baculovirus expression system
[34] = biological target: Ribosomal protein S6 kinase alpha-6 (Homo sapiens, UniProt Q9UK32); assay: Inhibition of recombinant human full-length GST-tagged RSK4 expressed in baculovirus expression system

IC50 [1]: 63.1 nM | IC50 [2]: 200 nM | IC50 [3]: > 20000 nM | IC50 [4]: 1000 nM | IC50 [5]: 14 nM | IC50 [6]: 631 nM | IC50 [7]: 1260 nM | IC50 (Ephrin type-A receptor 3): > 20000 nM | IC50 [8]: 63.1 nM | pIC50 (MAP kinase p38): < 4.7 | IC50 [9]: > 20000 nM | pIC50 [10]: 7.4 | IC50 [11]: > 20000 nM
SMILES: CC(C)n1cnnc1-c1cccc(N2Cc3ccccc3C2=O)n1

IC50 [5]: 2 nM
SMILES: CC(C)n1cnnc1-c1cccc(NC(=O)C2CN(C)CCO2)n1 (centres undefined)

Ratio IC50 (Homo sapiens [12]): < 20 | Papp A→B (MDR1 (human)): 10.7 ×10⁻⁶ cm/s | Ratio IC50 (Homo sapiens [13]): < 20 | solubility [14]: > 200 µM | IC50 [15]: ≤ 500 nM | EC50 [16]: 24 nM | IC50 [17]: ≤ 500 nM | Ratio IC50 (Homo sapiens [18]): < 20 | Ratio IC50 (Homo sapiens [19]): < 20 | IC50 [20]: ≤ 500 nM | Ratio IC50 (Homo sapiens [21]): < 20 | IC50 [22]: ≤ 500 nM | Ratio IC50 (Homo sapiens [23]): < 20 | Ratio IC50 (Homo sapiens [24]): < 20 | IC50 [5]: 17 nM | IC50 [25]: ≤ 500 nM | Fa [26]: 52% | Kd [27]: < 1 nM | bioavailability [28]: 18% | hepatic extraction ratio [29]: 0.32 | solubility [31]: 101 µM (≈ 43.8 µg/mL) | IC50 [32]: ≤ 500 nM | IC50 [33]: ≤ 500 nM | IC50 [34]: ≤ 500 nM
SMILES: CC(C)n1cnnc1-c1cccc(NC(=O)[C@H]2CN(c3ccc(C4CC4)nc3)CCO2)n1
Ratio IC50 (Homo sapiens [30]): < 20

IC50 [1]: 3160 nM | IC50 [2]: > 20000 nM | IC50 [3]: > 20000 nM | IC50 [4]: > 20000 nM | IC50 [5]: 270 nM | IC50 [6]: > 20000 nM | IC50 [7]: > 20000 nM | IC50 (Ephrin type-A receptor 3): > 20000 nM | IC50 [8]: > 20000 nM | pIC50 (MAP kinase p38): < 4.7 | IC50 [9]: > 20000 nM | pIC50 [10]: 6.2 | IC50 [11]: > 20000 nM
SMILES: CC(C)n1cnnc1-c1cccc(NC(=O)C2CCCCO2)n1 (centres undefined)

IC50 [5]: 130 nM
SMILES: CC(C)n1cnnc1-c1cccc(NC(=O)C2CN(c3ccccc3)CCO2)n1 (centres undefined)

IC50 [5]: 31 nM
SMILES: CC(C)n1cnnc1-c1cccc(NC(=O)C2CN(c3cccnc3)CCO2)n1 (centres undefined)
